Experiment: Oil recovery from oil saturated formation core by brine displacement followed by DMS displacement
Details: after waterflooding with brine
Protocol: Incremental recovery of oil from a formation core using an oil recovery formulation consisting of dimethyl sulfide following oil recovery from the core by water-flooding was measured to evaluate the effectiveness of DMS as a tertiary oil recovery agent.
Two 5.02 cm long Berea sandstone cores with a core diameter of 3.78 cm and a permeability between 925 and 1325 mD were saturated with a brine having a composition as set forth in Table 7.
After saturation of the cores with brine, the brine was displaced by a Middle Eastern Asphaltic crude oil having the characteristics as set forth above in Table 3 to saturate the cores with oil.
Oil was recovered from each oil saturated core by the addition of brine to the core under pressure and by subsequent addition of DMS to the core under pressure. Each core was treated as follows to determine the amount of oil recovered from the core by addition of brine followed by addition of DMS. Oil was initially displaced from the core by addition of brine to the core under pressure. A confining pressure of 1 MPa was applied to the core during addition of the brine, and the flow rate of brine to the core was set at 0.05 ml/min. The core was maintained at a temperature of 50° C. during displacement of oil from the core with brine. […]

SMILES: CSC [Dimethyl Sulfide, dimethyl sulfide]
- oil recovered, of the oil remaining in the core after the waterflood: approximately 60%

Reference: patent US9399904B2, “Oil recovery system and method” (SHELL OIL COMPANY, priority 2013, dated 2016)
